# From patent publication US8541457B2, “Aminothiazole derivatives as human stearoyl-CoA desaturase inhibitors” (Xenon Pharmaceuticals Inc., priority 2005, dated 2013)
row,melting point [°C],SMILES
1,171 to 172,"Cc1nc(NC(=O)c2ccncc2)sc1C(=O)NCc1ccccc1 [Example 1, N-(5-Benzylcarbamoyl-4-methylthiazol-2-yl)isonicotinamide]"
2,178 to 179,"Cc1nc(NC(=O)c2cccc(Cl)c2)sc1C(=O)NCc1ccccc1 [Example 2.19, 2-(3-Chlorobenzoylamino)-4-methylthiazole-5-carboxylic Acid Benzylamide]"
3,207 to 208,"Cc1nc(NC(=O)c2cccc(C#N)c2)sc1C(=O)NCc1ccccc1 [Example 2.26, 2-(3-Cyanobenzoylamino)-4-methylthiazole-5-carboxylic Acid Benzylamide]"
4,224 to 226,"Cc1nc(NC(=O)c2cccnc2)sc1C(=O)NCc1ccccc1 [Example 2.27, N-(5-Benzylcarbamoyl-4-methylthiazol-2-yl)nicotinamide]"
5,162 to 165,"Cc1nc(NC(=O)c2cccc(F)c2)sc1C(=O)NCc1ccccc1 [Example 2.31, 2-(3-Fluorobenzoylamino)-4-methylthiazole-5-carboxylic Acid Benzylamide]"
6,75 to 77,"COc1cccc(C(=O)Nc2nc(C)c(C(=O)NCc3ccccc3)s2)c1 [Example 2.34, 2-(3-Methoxybenzoylamino)-4-methylthiazole-5-carboxylic Acid Benzylamide]"
7,63 to 65,"Cc1nc(NC(=O)Cc2ccccc2)sc1C(=O)NCc1ccccc1 [Example 2.39, 4-Methyl-2-phenylacetylaminothiazole-5-carboxylic Acid Benzylamide]"
8,63 to 65,"Cc1nc(NC(=O)CCc2ccccc2)sc1C(=O)NCc1ccccc1 [Example 2.40, 4-Methyl-2-(3-phenylpropionylamino)thiazole-5-carboxylic Acid Benzylamide]"
9,87 to 89,"CCC(NC(=O)c1sc(NC(=O)c2ccccc2)nc1C)c1ccccc1 (stereo not shown) [Example 3, 2-Benzoylamino-4-methylthiazole-5-carboxylic Acid (1-Phenylpropyl)amide]"
10,247 to 249,"O=C(Nc1nc(Cl)c(C(=O)NCc2ccccc2)s1)c1ccccc1 [Example 3.1, 2-Benzoylamino-4-chlorothiazole-5-carboxylic Acid Benzylamide]"
11,> 300,"Cc1nc(NC(=O)Nc2ccccc2)sc1C(=O)NCc1ccccc1 [Example 4, 4-Methyl-2-(3-phenylureido)thiazole-5-carboxylic Acid Benzylamide]"

# Second part, the compound before the results:
row,SMILES,melting point [°C]
1,"CCC(=O)Nc1nc(C)c(C(=O)NCc2ccccc2)s1 [Example 2.1, 4-Methyl-2-propionylaminothiazole-5-carboxylic Acid Benzylamide]",175 to 176
2,"Cc1nc(NC(=O)C2CC2)sc1C(=O)NCc1ccccc1 [Example 2.2, 2-(Cyclopropanecarbonylamino)-4-methylthiazole-5-carboxylic Acid Benzylamide]",241 to 243
3,"Cc1nc(NC(=O)c2ccc(F)cc2Cl)sc1C(=O)NCc1ccccc1 [Example 2.20, 2-(2-Chloro-4-fluorobenzoylamino)-4-methylthiazole-5-carboxylic Acid Benzylamide]",95 to 96
4,"Cc1nc(NC(=O)c2ccccc2OC(F)(F)F)sc1C(=O)NCc1ccccc1 [Example 2.21, 4-Methyl-2-(2-trifluoromethoxybenzoylamino)thiazole-5-carboxylic Acid Benzylamide]",140 to 141
5,"Cc1nc(NC(=O)c2cccc(C(F)(F)F)c2)sc1C(=O)NCc1ccccc1 [Example 2.22, 4-Methyl-2-(3-trifluoromethylbenzoylamino)thiazole-5-carboxylic Acid Benzylamide]",195 to 196
6,"Cc1nc(NC(=O)c2cccc3ccccc23)sc1C(=O)NCc1ccccc1 [Example 2.23, 4-Methyl-2-[(naphthalene-1-carbonyl)amino]thiazole-5-carboxylic Acid Benzylamide]",99 to 101
7,"Cc1nc(NC(=O)c2cc(Cl)cc(Cl)c2)sc1C(=O)NCc1ccccc1 [Example 2.24, 2-(3,5-Dichlorobenzoylamino)-4-methylthiazole-5-carboxylic Acid Benzylamide]",104 to 105
8,"Cc1nc(NC(=O)c2ccc(C#N)cc2)sc1C(=O)NCc1ccccc1 [Example 2.25, 2-(4-Cyanobenzoylamino)-4-methylthiazole-5-carboxylic Acid Benzylamide]",256 to 258
9,"Cc1nc(NC(=O)c2cccc(OC(F)(F)F)c2)sc1C(=O)NCc1ccccc1 [Example 2.28, 4-Methyl-2-(3-trifluoromethoxybenzoylamino)thiazole-5-carboxylic Acid Benzylamide]",230 to 232
10,"Cc1nc(NC(=O)c2cc(F)cc(F)c2)sc1C(=O)NCc1ccccc1 [Example 2.29, 2-(3,5-Difluorobenzoylamino)-4-methylthiazole-5-carboxylic Acid Benzylamide]",84 to 86
11,"Cc1nc(NC(=O)c2cc(Cl)ccc2F)sc1C(=O)NCc1ccccc1 [Example 2.30, 2-(5-Chloro-2-fluorobenzoylamino)-4-methylthiazole-5-carboxylic Acid Benzylamide]",175 to 178
12,"Cc1nc(NC(=O)c2ccc(OC(F)(F)F)cc2)sc1C(=O)NCc1ccccc1 [Example 2.32, 4-Methyl-2-(4-trifluoromethoxybenzoylamino)thiazole-5-carboxylic Acid Benzylamide]",168 to 170
13,"COc1ccc(C(=O)Nc2nc(C)c(C(=O)NCc3ccccc3)s2)cc1 [Example 2.33, 2-(4-Methoxybenzoylamino)-4-methylthiazole-5-carboxylic Acid Benzylamide]",203 to 204
14,"Cc1nc(NC(=O)c2cccc(S(C)(=O)=O)c2)sc1C(=O)NCc1ccccc1 [Example 2.35, 2-(3-Methanesulfonylbenzoylamino)-4-methylthiazole-5-carboxylic Acid Benzylamide]",111 to 113
15,"Cc1nc(NC(=O)c2ccccc2S(C)(=O)=O)sc1C(=O)NCc1ccccc1 [Example 2.36, 2-(2-Methanesulfonylbenzoylamino)-4-methylthiazole-5-carboxylic Acid Benzylamide]",239 to 242
16,"Cc1nc(NC(=O)c2ccc(Cl)c(Cl)c2)sc1C(=O)NCc1ccccc1 [Example 2.37, 2-(3,4-Dichlorobenzoylamino)-4-methylthiazole-5-carboxylic Acid Benzylamide]",212 to 214
17,"Cc1nc(NC(=O)c2ccc(S(C)(=O)=O)cc2)sc1C(=O)NCc1ccccc1 [Example 2.38, 2-(4-Methanesulfonylbenzoylamino)-4-methylthiazole-5-carboxylic Acid Benzylamide]",262 to 265
18,"Cc1nc(NC(=O)CC2CC2)sc1C(=O)NCc1ccccc1 [Example 2.41, 2-(2-Cyclopropylacetylamino)-4-methylthiazole-5-carboxylic Acid Benzylamide]",136 to 139
19,"Cc1ccc(S(=O)(=O)Nc2nc(C)c(C(=O)NCc3ccccc3)s2)cc1 [Example 2.42, 4-Methyl-2-(toluene-4-sulfonylamino)thiazole-5-carboxylic Acid Benzylamide]",242 to 245
20,"Cc1nc(NC(=O)Nc2ccc(F)cc2)sc1C(=O)NCc1ccccc1 [Example 4.1, 2-[3-(4-Fluorophenyl)ureido]-4-methylthiazole-5-carboxylic Acid Benzylamide]",> 300
